According to ChEMBL document CHEMBL1153532, “Design and evaluation of novel biphenyl sulfonamide derivatives with potent histamine H(3) receptor inverse agonist activity” (J Med Chem, 2009):
The source made the active and inactive calls. The calls are words filed in the database; no cut-off is given here.

How the values were obtained:
Histamine H3 receptor = Histamine H3 receptor (Rattus norvegicus, UniProt Q9QYN8); assay: Displacement of N-[3H]methylhistamine from histamine H3 receptor in rat cortex membrane; type: cell membranes
Chain of Histamine H3 receptor (Q9QYN8 whole entry): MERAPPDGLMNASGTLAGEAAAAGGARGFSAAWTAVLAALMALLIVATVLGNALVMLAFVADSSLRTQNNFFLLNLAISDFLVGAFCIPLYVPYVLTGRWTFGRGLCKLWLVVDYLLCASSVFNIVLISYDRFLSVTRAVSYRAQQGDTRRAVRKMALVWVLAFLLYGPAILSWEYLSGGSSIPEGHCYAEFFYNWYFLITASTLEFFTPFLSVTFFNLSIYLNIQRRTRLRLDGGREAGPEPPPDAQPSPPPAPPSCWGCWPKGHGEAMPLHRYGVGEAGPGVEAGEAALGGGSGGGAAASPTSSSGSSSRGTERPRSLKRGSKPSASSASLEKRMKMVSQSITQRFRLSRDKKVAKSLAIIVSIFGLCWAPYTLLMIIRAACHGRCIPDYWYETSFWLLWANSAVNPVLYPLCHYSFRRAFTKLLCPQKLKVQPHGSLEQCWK

hERG (KCNH2) = hERG (KCNH2) (Homo sapiens, UniProt Q12809); assay: Inhibition of human ERG at 3 uM by patch clamp assay
Chain of hERG (KCNH2) (Q12809 whole entry): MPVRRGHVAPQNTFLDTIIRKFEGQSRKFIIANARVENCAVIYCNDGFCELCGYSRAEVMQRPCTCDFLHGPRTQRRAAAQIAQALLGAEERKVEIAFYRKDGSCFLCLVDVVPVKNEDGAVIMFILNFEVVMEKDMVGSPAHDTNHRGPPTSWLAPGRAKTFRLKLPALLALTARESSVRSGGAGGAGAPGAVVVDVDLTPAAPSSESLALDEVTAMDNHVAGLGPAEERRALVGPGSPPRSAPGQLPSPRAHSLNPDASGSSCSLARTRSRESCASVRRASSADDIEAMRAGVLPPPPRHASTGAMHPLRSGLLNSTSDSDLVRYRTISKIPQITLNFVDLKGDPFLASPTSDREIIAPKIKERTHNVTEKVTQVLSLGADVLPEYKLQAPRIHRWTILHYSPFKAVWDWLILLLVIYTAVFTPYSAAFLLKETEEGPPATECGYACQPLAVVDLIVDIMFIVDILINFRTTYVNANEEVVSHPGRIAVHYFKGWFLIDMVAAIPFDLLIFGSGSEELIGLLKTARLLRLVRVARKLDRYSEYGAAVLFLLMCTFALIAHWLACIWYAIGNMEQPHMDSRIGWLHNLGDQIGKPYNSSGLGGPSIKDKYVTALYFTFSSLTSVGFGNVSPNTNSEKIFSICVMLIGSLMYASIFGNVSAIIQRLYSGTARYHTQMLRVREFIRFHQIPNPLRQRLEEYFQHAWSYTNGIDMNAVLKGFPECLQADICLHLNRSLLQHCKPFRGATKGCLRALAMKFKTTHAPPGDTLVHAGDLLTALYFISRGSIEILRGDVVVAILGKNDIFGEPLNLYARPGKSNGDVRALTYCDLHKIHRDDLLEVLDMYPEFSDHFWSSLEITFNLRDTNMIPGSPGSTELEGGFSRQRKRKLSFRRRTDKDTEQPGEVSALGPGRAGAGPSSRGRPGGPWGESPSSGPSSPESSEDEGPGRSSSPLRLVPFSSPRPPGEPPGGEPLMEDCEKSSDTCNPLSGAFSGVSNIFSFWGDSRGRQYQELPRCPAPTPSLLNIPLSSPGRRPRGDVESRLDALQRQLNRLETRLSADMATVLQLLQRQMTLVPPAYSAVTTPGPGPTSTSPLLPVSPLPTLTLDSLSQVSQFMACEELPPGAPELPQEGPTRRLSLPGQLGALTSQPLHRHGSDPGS

[1] = Drug level in Sprague-Dawley rat brain at 10 mg/kg, po after 0.5 hrs; type: ADME, organism-based; parameters: dose 10 mg/kg, route oral; settings: read-out: Drug uptake
in vivo = settings: Sprague-Dawley, rat, brain/plasma, po, 10 mg/kg
Rattus norvegicus [2] = assay: Inhibition of (R)-alpha-methyl histamine induced drinking in Sprague-Dawley rat dipsogenia model at 1 mg/kg, po administered 0.5 hrs before (R)-alpha-methyl histamine challenge; type: functional
Rattus norvegicus [3] = assay: Inhibition of (R)-alpha-methyl histamine induced drinking in Sprague-Dawley rat dipsogenia model at 3 mg/kg, po administered 0.5 hrs before (R)-alpha-methyl histamine challenge; type: functional
[4] = Plasma concentration in Sprague-Dawley rat at 10 mg/kg, po after 0.5 hrs; type: ADME, organism-based; parameters: dose 10 mg/kg, route oral
[5] = Oral bioavailability in Sprague-Dawley rat at 10 mg/kg, po up to 21 hrs; type: ADME, organism-based; settings: in vivo
[6] = Half life in Sprague-Dawley rat at 10 mg/kg, po up to 21 hrs; type: ADME, organism-based; parameters: dose 10 mg/kg, route oral; settings: in vivo
[7] = Tmax in Sprague-Dawley rat at 10 mg/kg, po up to 21 hrs; type: ADME, organism-based; parameters: dose 10 mg/kg, route oral; settings: in vivo
[8] = target: Histamine H4 receptor (Homo sapiens) (UniProt Q9H3N8); assay: Binding affinity to human histamine H4 receptor at 1 uM
Chain of Histamine H4 receptor (Homo sapiens) (Q9H3N8 whole entry): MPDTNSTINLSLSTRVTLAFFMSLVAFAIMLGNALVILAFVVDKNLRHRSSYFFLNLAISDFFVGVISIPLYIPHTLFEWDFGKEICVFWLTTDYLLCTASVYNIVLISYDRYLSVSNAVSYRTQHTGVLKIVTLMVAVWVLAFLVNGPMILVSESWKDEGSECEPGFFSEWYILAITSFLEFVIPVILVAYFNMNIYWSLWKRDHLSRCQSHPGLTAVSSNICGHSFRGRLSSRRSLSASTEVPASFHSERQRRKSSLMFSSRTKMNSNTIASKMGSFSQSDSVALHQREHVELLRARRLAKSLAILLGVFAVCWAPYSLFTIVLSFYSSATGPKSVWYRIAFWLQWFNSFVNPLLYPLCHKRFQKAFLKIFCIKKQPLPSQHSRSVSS

[9] = target: Histamine H2 receptor (Homo sapiens) (UniProt P25021); assay: Binding affinity to human histamine H2 receptor at 1 uM
Chain of Histamine H2 receptor (Homo sapiens) (P25021 whole entry): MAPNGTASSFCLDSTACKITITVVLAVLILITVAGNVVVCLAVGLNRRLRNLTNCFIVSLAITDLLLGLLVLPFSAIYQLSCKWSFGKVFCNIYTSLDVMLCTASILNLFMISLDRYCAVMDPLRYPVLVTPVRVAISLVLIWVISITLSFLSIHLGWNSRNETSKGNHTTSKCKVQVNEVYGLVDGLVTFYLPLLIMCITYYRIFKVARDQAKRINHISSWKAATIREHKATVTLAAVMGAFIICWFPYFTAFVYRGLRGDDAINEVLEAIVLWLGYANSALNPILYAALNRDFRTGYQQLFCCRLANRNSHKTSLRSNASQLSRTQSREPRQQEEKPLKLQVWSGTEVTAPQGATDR

[10] = target: Histamine H1 receptor (Homo sapiens) (UniProt P35367); assay: Binding affinity to human histamine H1 receptor at 1 uM
Chain of Histamine H1 receptor (Homo sapiens) (P35367 whole entry): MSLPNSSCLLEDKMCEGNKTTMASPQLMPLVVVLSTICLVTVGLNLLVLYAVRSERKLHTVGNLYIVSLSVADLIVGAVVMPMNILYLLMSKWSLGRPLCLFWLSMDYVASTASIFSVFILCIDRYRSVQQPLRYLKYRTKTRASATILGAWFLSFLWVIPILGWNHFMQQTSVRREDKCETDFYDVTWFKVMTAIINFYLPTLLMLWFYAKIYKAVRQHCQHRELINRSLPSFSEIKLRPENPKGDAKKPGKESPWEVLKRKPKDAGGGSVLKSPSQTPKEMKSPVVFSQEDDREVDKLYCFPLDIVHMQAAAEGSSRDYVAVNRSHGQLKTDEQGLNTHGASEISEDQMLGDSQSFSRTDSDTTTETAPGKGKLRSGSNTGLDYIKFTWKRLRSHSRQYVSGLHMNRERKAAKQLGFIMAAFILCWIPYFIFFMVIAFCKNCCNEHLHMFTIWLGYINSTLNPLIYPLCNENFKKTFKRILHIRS

Rattus norvegicus [11] = assay: Increase in wakefulness in Sprague-Dawley rat at 0.1 mg/kg, po administered 4 hrs after lights out condition measured over 5 hrs period by polysomnographic method; type: functional, organism-based; parameters: dose 0.1 mg/kg
Rattus norvegicus [12] = assay: Increase in wakefulness in Sprague-Dawley rat at 1 mg/kg, po administered 4 hrs after lights out condition measured over 5 hrs period by polysomnographic method; type: functional
Brain = assay: Drug level in Sprague-Dawley rat brain assessed as 4'-[2-((R)-2-Methyl-pyrrolidin-1-yl)-ethyl]-biphenyl-4-sulfonic Acid Amide level at 1 mg/kg, po after 3.5 hrs; type: ADME, organism-based; parameters: dose 1 mg/kg, route oral; settings: in vivo
Rattus norvegicus [13] = assay: Inhibition of (R)-alpha-methyl histamine induced drinking in Sprague-Dawley rat dipsogenia model at 0.3 mg/kg, po administered 0.5 hrs before (R)-alpha-methyl histamine challenge; type: functional

Q: With C[C@@H]1CCCN1CCc1ccc(-c2ccc(S(=O)(=O)N3CCS(=O)(=O)CC3)cc2)cc1 as the molecule, how does the Ki (Histamine H3 receptor; read-out: pKi (converted)) read?
A: The Ki was 0.933 nM.

Q: Which Ki (Histamine H3 receptor; read-out: pKi (converted)) does the source give for C[C@@H]1CCCN1CCc1ccc(-c2ccc(S(=O)(=O)NCc3ccncc3)cc2)cc1 here?
A: The Ki was 0.182 nM.

Q: And the inhibition at 3 µM (hERG (KCNH2))?
A: Its inhibition at 3 µM is 27%.

Q: With C[C@@H]1CCCN1CCc1ccc(-c2ccc(S(=O)(=O)NC(C)(C)CO)cc2)cc1 as the molecule, how does the inhibition at 3 µM (hERG (KCNH2)) read?
A: Its inhibition at 3 µM is 37%.

Q: Which inhibition at 3 µM (hERG (KCNH2)) does the source give for C[C@@H]1CCCN1CCc1ccc(-c2ccc(S(=O)(=O)NCC3CC3)cc2)cc1 here?
A: Its inhibition at 3 µM is 54%.

Q: For C[C@@H]1CCCN1CCc1ccc(-c2cccc(S(=O)(=O)N3CCCCC3)c2)cc1, which Ki (Histamine H3 receptor; read-out: pKi (converted)) is on record?
A: The Ki was 12.6 nM.

Q: Which concentration at 0.5 h [1] does the source give for COCCNS(=O)(=O)c1ccc(-c2ccc(CCN3CCC[C@H]3C)cc2)cc1 here?
A: Its concentration at 0.5 h is 8700 ng/mL.

Q: What about the Kp at 0.5 h (in vivo) of the same molecule?
A: Its Kp at 0.5 h is 0.78.

Q: What about the inhibition in vivo at 1 mg/kg (Rattus norvegicus [2]) of the same molecule?
A: Its inhibition in vivo at 1 mg/kg is 40.7%.

Q: And the inhibition in vivo at 3 mg/kg (Rattus norvegicus [3])?
A: Its inhibition in vivo at 3 mg/kg is 96.7%.

Q: What about the concentration at 0.5 h [4] of the same molecule?
A: The concentration at 0.5 h was 11200 ng/mL.

Q: And the bioavailability [5]?
A: Its bioavailability is 22%.

Q: What about the Ki (Histamine H3 receptor; read-out: Ki) of the same molecule?
A: The Ki was 3 nM.

Q: What about the inhibition at 3 µM (hERG (KCNH2)) of the same molecule?
A: Its inhibition at 3 µM is 29%.

Q: And the half-life [6]?
A: Its half-life is 2.6 h.

Q: What about the Tmax [7] of the same molecule?
A: The Tmax was 0.2 h.

Q: With CCNS(=O)(=O)c1cccc(-c2ccc(CCN3CCC[C@H]3C)cc2)c1 as the molecule, how does the Ki (Histamine H3 receptor; read-out: pKi (converted)) read?
A: The Ki was 11 nM.

Q: With C[C@@H]1CCCN1CCc1ccc(-c2ccc(S(N)(=O)=O)cc2)cc1 as the molecule, how does the concentration at 0.5 h [1] read?
A: The concentration at 0.5 h was 800 ng/g.

Q: For CCN(CC)S(=O)(=O)c1ccc(-c2ccc(CCN3CCC[C@H]3C)cc2)cc1, which Ki (Histamine H3 receptor; read-out: pKi (converted)) is on record?
A: The Ki was 1.41 nM.

Q: With C[C@@H]1CCCN1CCc1ccc(-c2ccc(S(=O)(=O)NC3CCOCC3)cc2)cc1 as the molecule, how does the concentration at 0.5 h [1] read?
A: Its concentration at 0.5 h is 140 ng/mL.

Q: And the Kp at 0.5 h (in vivo)?
A: Its Kp at 0.5 h is 0.32.

Q: What about the inhibition in vivo at 1 mg/kg (Rattus norvegicus [2]) of the same molecule?
A: The inhibition in vivo at 1 mg/kg was 77.5%.

Q: What about the inhibition in vivo at 3 mg/kg (Rattus norvegicus [3]) of the same molecule?
A: Its inhibition in vivo at 3 mg/kg is 85.1%.

Q: And the concentration at 0.5 h [4]?
A: The concentration at 0.5 h was 440 ng/mL.

Q: And the bioavailability [5]?
A: Its bioavailability is 62%.

Q: And the Activity [8]?
A: The Activity was less than 10%.

Q: And the Ki (Histamine H3 receptor; read-out: Ki)?
A: The Ki was 2 nM.

Q: What about the Activity [9] of the same molecule?
A: The Activity was less than 10%.

Q: What about the Activity [10] of the same molecule?
A: The Activity was less than 10%.

Q: What about the half-life [6] of the same molecule?
A: Its half-life is 2.3 h.

Q: What about the Tmax [7] of the same molecule?
A: The Tmax was 0.8 h.

Q: What does the source list for CCNS(=O)(=O)c1ccc(-c2ccc(CCN3CCC[C@H]3C)cc2)cc1?
A: Activity (Rattus norvegicus [11]): inactive; concentration at 0.5 h [1]: 3600 ng/mL; Activity (Rattus norvegicus [12]): 40%; Kp at 0.5 h (in vivo): 2.3; Drug uptake (Brain): 246 ng/mL; inhibition in vivo at 1 mg/kg (Rattus norvegicus [2]): 77.6%; inhibition in vivo at 3 mg/kg (Rattus norvegicus [3]): 69.6%; concentration at 0.5 h [4]: 1600 ng/mL; bioavailability [5]: 93%; Activity [8]: < 10%; Activity [9]: < 10%; Activity [10]: < 10%; half-life [6]: 1.8 h; Tmax [7]: 0.5 h

Q: Which Ki (Histamine H3 receptor; read-out: pKi (converted)) does the source give for CC(C)NS(=O)(=O)c1cccc(-c2ccc(CCN3CCC[C@H]3C)cc2)c1 here?
A: Its Ki is 7.94 nM.

Q: What does the source list for C[C@@H]1CCCN1CCc1ccc(-c2ccc(S(=O)(=O)N3CCOCC3)cc2)cc1?
A: concentration at 0.5 h [1]: 320 ng/mL; inhibition in vivo at 1 mg/kg (Rattus norvegicus [2]): 99.8%; concentration at 0.5 h [4]: 160 ng/mL; bioavailability [5]: 12%; Activity [8]: < 10%; Ki (Histamine H3 receptor; read-out: Ki): 2 nM; Activity [9]: < 10%; Activity [10]: < 10%; half-life [6]: 1.2 h; inhibition in vivo at 0.3 mg/kg (Rattus norvegicus [13]): 34.1%; Tmax [7]: 1.7 h

Q: For C[C@@H]1CCCN1CCc1ccc(-c2ccc(S(=O)(=O)N3CC[C@H](O)C3)cc2)cc1, which Ki (Histamine H3 receptor; read-out: pKi (converted)) is on record?
A: The Ki was 2.45 nM.

Q: Which Ki (Histamine H3 receptor; read-out: pKi (converted)) does the source give for C[C@@H]1CCCN1CCc1ccc(-c2ccc(S(=O)(=O)NCc3ccccc3)cc2)cc1 here?
A: Its Ki is […].

Q: What about the inhibition at 3 µM (hERG (KCNH2)) of the same molecule?
A: The inhibition at 3 µM was 84%.

Q: Which Ki (Histamine H3 receptor; read-out: pKi (converted)) does the source give for C[C@@H]1CCCN1CCc1ccc(-c2ccc(S(=O)(=O)N3Cc4ccccc4C3)cc2)cc1 here?
A: The Ki was 0.501 nM.

Q: With C[C@@H]1CCCN1CCc1ccc(-c2ccc(S(=O)(=O)NC3CCC3)cc2)cc1 as the molecule, how does the Ki (Histamine H3 receptor; read-out: pKi (converted)) read?
A: Its Ki is […].

Q: What about the inhibition at 3 µM (hERG (KCNH2)) of the same molecule?
A: The inhibition at 3 µM was 79%.

Q: Which Ki (Histamine H3 receptor; read-out: pKi (converted)) does the source give for CCN(CC)S(=O)(=O)c1cccc(-c2ccc(CCN3CCC[C@H]3C)cc2)c1 here?
A: The Ki was 16.2 nM.
